Data from patent publication US20190038714A1, “ANTI-INFLAMMATORY COMPOSITION COMPRISING CLAVASPIRIN PEPTIDE ANALOGUE AS EFFECTIVE INGREDIENT” (INDUSTRY-ACADEMIC COOPERATION FOUNDATION, CHOSUN UNIVERSITY, priority 2015, published 2019).
Ends that are not written are not given here.

Assays:
S. aureus = settings: 24 hours at 37° C.
S. aureus MRSA 0027 = settings: 24 hours at 37° C.
S. aureus MRSA 5157 = settings: 24 hours at 37° C.
S. aureus MRSA 3-359 = settings: 24 hours at 37° C.
S. aureus MRSA 2-122 = settings: 24 hours at 37° C.
S. aureus MRSA 1870 = settings: 24 hours at 37° C.
S. aureus MRSA 5156 = settings: 24 hours at 37° C.
S. aureus MRSA 3518 = settings: 24 hours at 37° C.
HaCaT cell line = assay: Cytotoxicity in normal cell line (MTT); assay type: cell-based, human; settings: HaCaT cell line
Experimental: To determine the cytotoxicity of the peptide produced by the method of Example 1 in normal cell line, toxicity was measured by using human keratinocyte forming cell line (HaCaT cell line, Dr. NE. Fusenig, Heidelberg, Germany).
Specifically, HaCaT cells which have been cultured in DMEM medium containing 10% FBS (Fetal Bovine Serum) were aliquoted in a 96-well plate (3×10^3 cells/well). […] After the culture, a reaction solution containing 5 mg/ml MTT (Thiazolyl Blue Tetrazolium Bromide) dissolved in physiological saline (PBS) was added in an amount of 20 μl to each well and allowed to react for 4 hours. After that, the supernatant was removed, and, by dissolving the formed MTT crystals by adding 200 μl of DMSO, the absorbance at 560 nm was measured to determine the cell survival ability.

skin of a hairless mouse = assay: Scanning electron microscopy of hairless mouse skin with induced dermatitis; assay type: in vivo; settings: 200 μg/ml
Experimental: Skin of a 6-week old hairless mouse was treated with 100 μl of S. aureus MRSA 0027 (1×10^8 cells/ml) to induce inflammation. Thirty minutes later, the skin was further treated with CSP-4 peptide at 100 μg/ml or 200 μg/ml. From each of a mouse having induced inflammation further treated with the peptide, a mouse treated only with the peptide, and a mouse having induced inflammation, tissues were collected and washed using physiological saline (PBS). Then, the tissues were fixed for 24 hours at room temperature by using 4% PFA (paraformaldehyde). […] According to H&E staining and immunohistochemical method, a change in tissues and onset of an anti-inflammatory cytokine or TLR2 receptor was determined. […] Remaining liquids were removed by TBST buffer such that the tissues are not detached, and a secondary antibody linked with green fluorescence (Got anti-mouse IgG (HRP) LF-SA5001-conjugated) was allowed to bind thereto. Next, each tissue was determined by using a fluorescent microscope (I×71, Olympus, Japan).
From the mouse tissues which have been treated according to the method of above Example 8, a paraffin block was prepared. […] Next, a change in the tissues was determined by using scanning electron microscopy (SEM).

Row | Substance | MIC (S. aureus) [µM] | MIC (S. aureus MRSA 0027) [µM] | MIC (S. aureus MRSA 5157) [µM] | MIC (S. aureus MRSA 3-359) [µM] | MIC (S. aureus MRSA 2-122) [µM] | MIC (S. aureus MRSA 1870) [µM] | MIC (S. aureus MRSA 5156) [µM] | MIC (S. aureus MRSA 3518) [µM] | cytotoxicity in human keratinocyte forming cell line (HaCaT cell line) | change in mouse skin (SEM), treated only with the peptide (skin of a hairless mouse)
1 | FLRFIGSVIHGIGHLVHHIGVAL-NH2 [Clavaspirin] | 16 | 16 | 8 | 16 | 8 | 8 | 8 | 8 |  | 
2 | FLRFIGSVKHGKGHLVHHIGVAL-NH2 [CSP-4] | 8 | 8 | 8 | 8 | 8 | 8 | 8 | 8 | almost no cytotoxicity | no change in mouse skin is induced
